Species on record: Rattus norvegicus
Experiment: DrugMatrix - Regimen: Daily Repeat
Format: toxicity, organism-based, Sprague-Dawley
Design: regimen Daily Repeat, gender Male, age 6-8 weeks
Conditions: in vivo, po, route oral GAVAGE, vehicle .5 % CMC; for BASOPHIL / EOSINOPHIL / ERYTHROCYTE COUNT / HEMATOCRIT / HEMOGLOBIN / LEUKOCYTE COUNT / LYMPHOCYTE / MEAN CORPUSCULAR HEMOGLOBIN / MEAN CORPUSCULAR HEMOGLOBIN CONCENTRATION / MEAN CORPUSCULAR VOLUME / MONOCYTE / NEUTROPHIL / PLATELET COUNT: tissue Blood; for ALANINE AMINOTRANSFERASE / ALBUMIN / ALKALINE PHOSPHATASE / ASPARTATE AMINOTRANSFERASE / BLOOD UREA NITROGEN / CHLORIDE / CHOLESTEROL / CREATINE PHOSPHOKINASE / CREATININE / GLUCOSE / PHOSPHORUS / POTASSIUM / SODIUM / TOTAL BILIRUBIN / TOTAL PROTEIN: tissue Plasma
[1] = 0 mg/kg, 72 h, dose level Control, time 3 day
[2] = 0 mg/kg, 120 h, dose level Control, time 5 day
[3] = 120 mg/kg, 72 h, dose level Low, time 3 day
[4] = 120 mg/kg, 120 h, dose level Low, time 5 day
[5] = 1500 mg/kg, 72 h, dose level High, time 3 day
[6] = 1500 mg/kg, 120 h, dose level High, time 5 day

With `CC1CC(OC(=O)C(O)c2ccccc2)CC(C)(C)C1` (stereo not drawn) [CYCLANDELATE] the BASOPHIL [1] was 0%, the EOSINOPHIL [1] was 0% and the “ERYTHROCYTE COUNT” value [1] was 6.34 x10E6/uL. The HEMATOCRIT [1] was 37.62%, the HEMOGLOBIN [1] was 14.82 G/DL and the “LEUKOCYTE COUNT” value [1] was 11.18 x10E3/uL. The LYMPHOCYTE [1] was 87.5%, the “MEAN CORPUSCULAR HEMOGLOBIN” value [1] was 23.48 pg and the “MEAN CORPUSCULAR HEMOGLOBIN CONCENTRATION” value [1] was 39.5 G/DL. The “MEAN CORPUSCULAR VOLUME” value [1] was 59.45 fL, the MONOCYTE [1] was 1.67% and the NEUTROPHIL [1] was 10.83%. The “PLATELET COUNT” value [1] was 1074.83 x10E3/uL, the “ALANINE AMINOTRANSFERASE” value [1] was 36.5 u/L and the ALBUMIN [1] was 3.9 G/DL. For the same compound, the “ALKALINE PHOSPHATASE” value [1] was 370.17 u/L, the “ASPARTATE AMINOTRANSFERASE” value [1] was 63.17 u/L and the “BLOOD UREA NITROGEN” value [1] was 16.83 mg/dL. The CHLORIDE [1] was 99.33 MEQ/L, the CHOLESTEROL [1] was 64.33 mg/dL and the “CREATINE PHOSPHOKINASE” value [1] was 127 u/L. The CREATININE [1] was 0.55 mg/dL, the GLUCOSE [1] was 173.5 mg/dL and the PHOSPHORUS [1] was 10.08 mg/dL. For the same compound, the POTASSIUM [1] was 6.23 MEQ/L, the SODIUM [1] was 143.5 MEQ/L and the “TOTAL BILIRUBIN” value [1] was 0.52 mg/dL. For the same compound, the “TOTAL PROTEIN” value [1] was 6.35 G/DL, the BASOPHIL [2] was 0% and the EOSINOPHIL [2] was 0.17%. For the same compound, the “ERYTHROCYTE COUNT” value [2] was 6.12 x10E6/uL, the HEMATOCRIT [2] was 37.08% and the HEMOGLOBIN [2] was 14.82 G/DL. For the same compound, the “LEUKOCYTE COUNT” value [2] was 11.87 x10E3/uL, the LYMPHOCYTE [2] was 83.33% and the “MEAN CORPUSCULAR HEMOGLOBIN” value [2] was 24.25 pg. For the same compound, the “MEAN CORPUSCULAR HEMOGLOBIN CONCENTRATION” value [2] was 39.97 G/DL, the “MEAN CORPUSCULAR VOLUME” value [2] was 60.65 fL and the MONOCYTE [2] was 1.5%. The NEUTROPHIL [2] was 15%, the “PLATELET COUNT” value [2] was 1042.83 x10E3/uL and the “ALANINE AMINOTRANSFERASE” value [2] was 46 u/L. For the same compound, the ALBUMIN [2] was 3.82 G/DL, the “ALKALINE PHOSPHATASE” value [2] was 369.5 u/L and the “ASPARTATE AMINOTRANSFERASE” value [2] was 65 u/L. The “BLOOD UREA NITROGEN” value [2] was 16.33 mg/dL, the CHLORIDE [2] was 100.67 MEQ/L and the CHOLESTEROL [2] was 57.17 mg/dL. For the same compound, the “CREATINE PHOSPHOKINASE” value [2] was 130 u/L, the CREATININE [2] was 0.53 mg/dL and the GLUCOSE [2] was 163.33 mg/dL. For the same compound, the PHOSPHORUS [2] was 9.53 mg/dL, the POTASSIUM [2] was 6.27 MEQ/L and the SODIUM [2] was 144.83 MEQ/L. The “TOTAL BILIRUBIN” value [2] was 0.55 mg/dL, the “TOTAL PROTEIN” value [2] was 6.32 G/DL and the BASOPHIL [3] was 0%. The EOSINOPHIL [3] was 0.67%, the “ERYTHROCYTE COUNT” value [3] was 6.2 x10E6/uL and the HEMATOCRIT [3] was 37.27%. For the same compound, the HEMOGLOBIN [3] was 14.57 G/DL, the “LEUKOCYTE COUNT” value [3] was 11.3 x10E3/uL and the LYMPHOCYTE [3] was 86.33%. For the same compound, the “MEAN CORPUSCULAR HEMOGLOBIN” value [3] was 23.5 pg, the “MEAN CORPUSCULAR HEMOGLOBIN CONCENTRATION” value [3] was 39.1 G/DL and the “MEAN CORPUSCULAR VOLUME” value [3] was 60.1 fL. The MONOCYTE [3] was 1.33%, the NEUTROPHIL [3] was 11.67% and the “PLATELET COUNT” value [3] was 1168 x10E3/uL. For the same compound, the “ALANINE AMINOTRANSFERASE” value [3] was 38.33 u/L, the ALBUMIN [3] was 3.93 G/DL and the “ALKALINE PHOSPHATASE” value [3] was 369.67 u/L. For the same compound, the “ASPARTATE AMINOTRANSFERASE” value [3] was 55.67 u/L, the “BLOOD UREA NITROGEN” value [3] was 14 mg/dL and the CHLORIDE [3] was 99 MEQ/L. The CHOLESTEROL [3] was 67.67 mg/dL, the “CREATINE PHOSPHOKINASE” value [3] was 114.33 u/L and the CREATININE [3] was 0.53 mg/dL. For the same compound, the GLUCOSE [3] was 156 mg/dL, the PHOSPHORUS [3] was 10.37 mg/dL and the POTASSIUM [3] was 6.13 MEQ/L. For the same compound, the SODIUM [3] was 144.67 MEQ/L, the “TOTAL BILIRUBIN” value [3] was 0.37 mg/dL and the “TOTAL PROTEIN” value [3] was 6.33 G/DL. For the same compound, the BASOPHIL [4] was 0%, the EOSINOPHIL [4] was 0% and the “ERYTHROCYTE COUNT” value [4] was 5.8 x10E6/uL. For the same compound, the HEMATOCRIT [4] was 35%, the HEMOGLOBIN [4] was 14.13 G/DL and the “LEUKOCYTE COUNT” value [4] was 12.1 x10E3/uL. The LYMPHOCYTE [4] was 90.33%, the “MEAN CORPUSCULAR HEMOGLOBIN” value [4] was 24.37 pg and the “MEAN CORPUSCULAR HEMOGLOBIN CONCENTRATION” value [4] was 40.4 G/DL. For the same compound, the “MEAN CORPUSCULAR VOLUME” value [4] was 60.3 fL, the MONOCYTE [4] was 0.67% and the NEUTROPHIL [4] was 9%. For the same compound, the “PLATELET COUNT” value [4] was 1005.67 x10E3/uL, the “ALANINE AMINOTRANSFERASE” value [4] was 37 u/L and the ALBUMIN [4] was 3.63 G/DL. The “ALKALINE PHOSPHATASE” value [4] was 308.67 u/L, the “ASPARTATE AMINOTRANSFERASE” value [4] was 59 u/L and the “BLOOD UREA NITROGEN” value [4] was 13.33 mg/dL. The CHLORIDE [4] was 99.67 MEQ/L, the CHOLESTEROL [4] was 64 mg/dL and the “CREATINE PHOSPHOKINASE” value [4] was 121.33 u/L. For the same compound, the CREATININE [4] was 0.53 mg/dL, the GLUCOSE [4] was 159 mg/dL and the PHOSPHORUS [4] was 10.83 mg/dL. The POTASSIUM [4] was 6.27 MEQ/L, the SODIUM [4] was 145.33 MEQ/L and the “TOTAL BILIRUBIN” value [4] was 0.37 mg/dL. The “TOTAL PROTEIN” value [4] was 5.93 G/DL, the BASOPHIL [5] was 0% and the EOSINOPHIL [5] was 0%. The “ERYTHROCYTE COUNT” value [5] was 5.97 x10E6/uL, the HEMATOCRIT [5] was 37.13% and the HEMOGLOBIN [5] was 14.77 G/DL. The “LEUKOCYTE COUNT” value [5] was 13.43 x10E3/uL, the LYMPHOCYTE [5] was 84.67% and the “MEAN CORPUSCULAR HEMOGLOBIN” value [5] was 24.83 pg. For the same compound, the “MEAN CORPUSCULAR HEMOGLOBIN CONCENTRATION” value [5] was 39.77 G/DL, the “MEAN CORPUSCULAR VOLUME” value [5] was 62.27 fL and the MONOCYTE [5] was 0.33%. For the same compound, the NEUTROPHIL [5] was 15%, the “PLATELET COUNT” value [5] was 1199 x10E3/uL and the “ALANINE AMINOTRANSFERASE” value [5] was 42.67 u/L. The ALBUMIN [5] was 3.77 G/DL, the “ALKALINE PHOSPHATASE” value [5] was 377.33 u/L and the “ASPARTATE AMINOTRANSFERASE” value [5] was 59.67 u/L. For the same compound, the “BLOOD UREA NITROGEN” value [5] was 13.67 mg/dL, the CHLORIDE [5] was 98.33 MEQ/L and the CHOLESTEROL [5] was 67.67 mg/dL. For the same compound, the “CREATINE PHOSPHOKINASE” value [5] was 127.67 u/L, the CREATININE [5] was 0.57 mg/dL and the GLUCOSE [5] was 161.67 mg/dL. For the same compound, the PHOSPHORUS [5] was 11.5 mg/dL, the POTASSIUM [5] was 6.17 MEQ/L and the SODIUM [5] was 143.33 MEQ/L. For the same compound, the “TOTAL BILIRUBIN” value [5] was 0.57 mg/dL, the “TOTAL PROTEIN” value [5] was 6.03 G/DL and the BASOPHIL [6] was 0%. For the same compound, the EOSINOPHIL [6] was 0.5%, the “ERYTHROCYTE COUNT” value [6] was 5.77 x10E6/uL and the HEMATOCRIT [6] was 35.95%. For the same compound, the HEMOGLOBIN [6] was 14.35 G/DL, the “LEUKOCYTE COUNT” value [6] was 10.4 x10E3/uL and the LYMPHOCYTE [6] was 91.5%. For the same compound, the “MEAN CORPUSCULAR HEMOGLOBIN” value [6] was 24.9 pg, the “MEAN CORPUSCULAR HEMOGLOBIN CONCENTRATION” value [6] was 39.9 G/DL and the “MEAN CORPUSCULAR VOLUME” value [6] was 62.4 fL. For the same compound, the MONOCYTE [6] was 0%, the NEUTROPHIL [6] was 8% and the “PLATELET COUNT” value [6] was 1077.5 x10E3/uL. For the same compound, the “ALANINE AMINOTRANSFERASE” value [6] was 34.67 u/L, the ALBUMIN [6] was 3.77 G/DL and the “ALKALINE PHOSPHATASE” value [6] was 393 u/L. The “ASPARTATE AMINOTRANSFERASE” value [6] was 55.67 u/L, the “BLOOD UREA NITROGEN” value [6] was 14.33 mg/dL and the CHLORIDE [6] was 100 MEQ/L. For the same compound, the CHOLESTEROL [6] was 87 mg/dL, the “CREATINE PHOSPHOKINASE” value [6] was 123.67 u/L and the CREATININE [6] was 0.57 mg/dL. The GLUCOSE [6] was 158 mg/dL, the PHOSPHORUS [6] was 11.47 mg/dL and the POTASSIUM [6] was 6.4 MEQ/L. The SODIUM [6] was 144.33 MEQ/L, the “TOTAL BILIRUBIN” value [6] was 0.37 mg/dL and the “TOTAL PROTEIN” value [6] was 6.17 G/DL.
